Patent publication US20160120877A1, “PHARMACEUTICAL COMPOSITIONS FOR SUSTAINED DELIVERY OF BENZODIAZEPINE ANTAGONISTS” (priority 2010, published 2016)

Key:
[1] = Dialysis diffusion: effect of concentration and sample size (same quantity of flumazenil); type: physicochemical
Method: (§1) Dialysis tubing cellulose membrane was cut into approximately 8 cm lengths, washed with hot water for 3 hours. Tubing was then treated with 0.3% (w/v) solution of sodium sulfide at 80° C. for 1 minute, washed with hot water (60° C.) for 2 minutes and followed by acidification with 0.2% sulfuric acid. Tubing was then rinsed with hot water to remove the acid. Test formulations were added, the tubing closed with nylon closures and placed in the dialysate. At various time periods, the dialysate was sampled and the flumazenil released measured by HPLC assay.
Experiments were conducted to test the effect of different concentrations and different sample sizes (but same quantity of flumazenil) on diffusion rate.
(§2) As described in 1.1 with 600 ml of phosphate buffer pH 4.0 as dialysate.
(§3) A=0.25 g of a 1.5% flumazenil solution in NMP
B=0.125 g of a 3% flumazenil solution in NMP
C=0.083 g of a 4.5% flumazenil solution in NMP

[2] = Dialysis diffusion: effect of sample concentration; type: physicochemical
Method: as §1
Experiments were conducted to test the effect of sample concentration on diffusion rate.
as §2, §3
B=0.25 g of a 3.0% flumazenil solution in NMP
C=0.25 g of a 4.5% flumazenil solution in NMP

[3] = sample A1 (0.25 g of 1.5% solution in NMP), 2 h
[4] = sample A1 (0.25 g of 1.5% solution in NMP), 3 h
[5] = sample A2 (0.25 g of 1.5% solution in NMP), 1 h
[6] = sample A2 (0.25 g of 1.5% solution in NMP), 2 h
[7] = sample A2 (0.25 g of 1.5% solution in NMP), 3 h
[8] = sample A (0.25 g of 1.5% solution in NMP)

% flumazenil released [1, 3]: 100.3% | % flumazenil released [1, 4]: 101.0% | % flumazenil released ([1]; sample A1 (0.25 g of 1.5% solution in NMP), 4 h): 100.9% | % flumazenil released ([1]; sample A1 (0.25 g of 1.5% solution in NMP), 5 h): 101.0% | % flumazenil released ([1]; sample A1 (0.25 g of 1.5% solution in NMP), 6 h): 100.8% | % flumazenil released [1, 5]: 93.2% | % flumazenil released [1, 6]: 100.7% | % flumazenil released [1, 7]: 100.9% | % flumazenil released ([1]; sample A2 (0.25 g of 1.5% solution in NMP), 4 h): 101.0% | % flumazenil released ([1]; sample A2 (0.25 g of 1.5% solution in NMP), 5 h): 100.6% | % flumazenil released ([1]; sample A2 (0.25 g of 1.5% solution in NMP), 6 h): 100.7% | precipitation in bags during the dialysis [1, 8]: no precipitation observed | % flumazenil released ([1]; sample B1 (0.125 g of 3% solution in NMP), 1 h): 92.3% | % flumazenil released ([1]; sample B1 (0.125 g of 3% solution in NMP), 2 h): 99.0% | % flumazenil released ([1]; sample B1 (0.125 g of 3% solution in NMP), 3 h): 100.4% | % flumazenil released ([1]; sample B1 (0.125 g of 3% solution in NMP), 4 h): 101.1% | % flumazenil released ([1]; sample B1 (0.125 g of 3% solution in NMP), 5 h): 100.9% | % flumazenil released ([1]; sample B1 (0.125 g of 3% solution in NMP), 6 h): 101.1% | % flumazenil released ([1]; sample B2 (0.125 g of 3% solution in NMP), 1 h): 80.6% | % flumazenil released ([1]; sample B2 (0.125 g of 3% solution in NMP), 2 h): 92.4% | % flumazenil released ([1]; sample B2 (0.125 g of 3% solution in NMP), 3 h): 97.3% | % flumazenil released ([1]; sample B2 (0.125 g of 3% solution in NMP), 4 h): 99.3% | % flumazenil released ([1]; sample B2 (0.125 g of 3% solution in NMP), 5 h): 100.3% | % flumazenil released ([1]; sample B2 (0.125 g of 3% solution in NMP), 6 h): 100.6% | precipitation in bags during the dialysis ([1]; sample B (0.125 g of 3% solution in NMP), rank A < B < C): precipitation was observed | % flumazenil released ([1]; sample C1 (0.083 g of 4.5% solution in NMP), 1 h): 56.1% | % flumazenil released ([1]; sample C1 (0.083 g of 4.5% solution in NMP), 2 h): 79.3% | % flumazenil released ([1]; sample C1 (0.083 g of 4.5% solution in NMP), 3 h): 92.3% | % flumazenil released ([1]; sample C1 (0.083 g of 4.5% solution in NMP), 4 h): 98.1% | % flumazenil released ([1]; sample C1 (0.083 g of 4.5% solution in NMP), 5 h): 100.1% | % flumazenil released ([1]; sample C1 (0.083 g of 4.5% solution in NMP), 6 h): 100.7% | % flumazenil released ([1]; sample C2 (0.083 g of 4.5% solution in NMP), 1 h): 43.5% | % flumazenil released ([1]; sample C2 (0.083 g of 4.5% solution in NMP), 2 h): 66.1% | % flumazenil released ([1]; sample C2 (0.083 g of 4.5% solution in NMP), 3 h): 82.3% | % flumazenil released ([1]; sample C2 (0.083 g of 4.5% solution in NMP), 4 h): 93.6% | % flumazenil released ([1]; sample C2 (0.083 g of 4.5% solution in NMP), 5 h): 99.2% | % flumazenil released ([1]; sample C2 (0.083 g of 4.5% solution in NMP), 6 h): 101.2% | precipitation in bags during the dialysis ([1]; sample C (0.083 g of 4.5% solution in NMP), rank A < B < C): precipitation was observed | % flumazenil released ([2]; sample A1 (0.25 g of 1.5% solution in NMP), 1 h): 92.9% | % flumazenil released [2, 3]: 100.5% | % flumazenil released [2, 4]: 101.4% | % flumazenil released [2, 5]: 89.8% | % flumazenil released [2, 6]: 100% | % flumazenil released [2, 7]: 101.4% | precipitation during the dialysis [2, 8]: no precipitation was observed | % flumazenil released ([2]; sample B1 (0.25 g of 3.0% solution in NMP), 1 h): 62.1% | % flumazenil released ([2]; sample B1 (0.25 g of 3.0% solution in NMP), 2 h): 74.8% | % flumazenil released ([2]; sample B2 (0.25 g of 3.0% solution in NMP), 1 h): 62.0% | % flumazenil released ([2]; sample B2 (0.25 g of 3.0% solution in NMP), 2 h): 76.3% | precipitation during the dialysis ([2]; sample B (0.25 g of 3.0% solution in NMP)): Precipitation was observed | % flumazenil released ([2]; sample C1 (0.25 g of 4.5% solution in NMP), 1 h): 27.5% | % flumazenil released ([2]; sample C1 (0.25 g of 4.5% solution in NMP), 2 h): 40.4% | % flumazenil released ([2]; sample C2 (0.25 g of 4.5% solution in NMP), 1 h): 29.1% | % flumazenil released ([2]; sample C2 (0.25 g of 4.5% solution in NMP), 2 h): 43.0% | precipitation during the dialysis ([2]; sample C (0.25 g of 4.5% solution in NMP)): Precipitation was observed
Structure (SMILES): CCOC(=O)c1ncn2c1CN(C)C(=O)c1cc(F)ccc1-2 [flumazenil, ethyl 8-fluoro-5,6-dihydro-5-methyl-6-oxo-4H-imidazo[1,5-a](1,4)benzodiazepine-3-carboxylate]
